Measurements published in PubChem BioAssay (NCI).
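Exposure lasted 48 hours, with cells grown in 96-well plates and compounds tested at five concentrations. GI50 marks 50% less growth. TGI: total growth inhibition.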

Tests used:
Test in all cases: inhibition of tumour cell growth, NCI panel, 48 h
[1] = system: SK-MEL-2 melanoma
[2] = system: LOX IMVI melanoma
[3] = system: OVCAR-3 ovarian
[4] = system: UO-31 renal
[5] = system: OVCAR-8 ovarian
[6] = system: RPMI-8226 leukemia
[7] = system: CCRF-CEM leukemia
[8] = system: SF-295 CNS
[9] = system: SK-MEL-5 melanoma
[10] = system: A549 NSCLC
[11] = system: MOLT-4 leukemia
[12] = system: HCT-116 colon
[13] = system: OVCAR-5 ovarian
[14] = system: PC-3 prostate
[15] = system: SF-268 CNS
[16] = system: HL-60(TB) leukemia
[17] = system: HCC-2998 colon
[18] = system: NCI-H460 lung
[19] = system: HCT-15 colon
[20] = system: CAKI-1 renal
[21] = system: UACC-257 melanoma
[22] = system: MALME-3M melanoma
[23] = system: IGROV1 ovarian
[24] = system: M14 melanoma
[25] = system: SN12C renal
[26] = system: ACHN renal
[27] = system: T-47D breast
[28] = system: EKVX NSCLC
[29] = system: MDA-MB-231 breast
[30] = system: K-562 leukemia
[31] = system: DU-145 prostate
[32] = system: HOP-92 NSCLC
[33] = system: 786-0 renal
[34] = system: SK-MEL-28 melanoma
[35] = system: HOP-62 NSCLC
[36] = system: OVCAR-4 ovarian
[37] = system: TK-10 renal
[38] = system: NCI/ADR-RES ovarian
[39] = system: NCI-H23 lung
[40] = system: MCF7 breast
[41] = system: SNB-19 CNS
[42] = system: HT29 colon
[43] = system: A498 renal
[44] = system: BT-549 breast
[45] = system: SK-OV-3 ovarian
[46] = system: KM12 colon
[47] = system: U251 CNS
[48] = system: NCI-H522 lung
[49] = system: SNB-75 CNS
[50] = system: COLO 205 colon
[51] = system: SF-539 CNS
[52] = system: SR leukemia
[53] = system: UACC-62 melanoma
[54] = system: SW-620 colon
[55] = system: RXF 393 renal
[56] = system: HS 578T breast
[57] = system: NCI-H226 lung

COc1cccc2cc(N(C)c3nc(C)nc4ccsc34)ccc12
GI50 [1]: 0.123 µM | TGI [1]: 17.3 µM | GI50 [2]: < 0.01 µM | TGI [2]: 13.6 µM | GI50 [3]: < 0.01 µM | GI50 [4]: < 0.01 µM | TGI [4]: 12.5 µM | GI50 [5]: < 0.01 µM | TGI [5]: 38.5 µM | GI50 [6]: < 0.01 µM | TGI [6]: 6.02 µM | GI50 [7]: < 0.01 µM | TGI [7]: > 100 µM | GI50 [8]: < 0.01 µM | TGI [8]: 12.4 µM | GI50 [9]: < 0.01 µM | TGI [9]: < 0.01 µM | GI50 [10]: < 0.01 µM | TGI [10]: 16 µM | GI50 [11]: < 0.01 µM | TGI [11]: 29.7 µM | GI50 [12]: < 0.01 µM | TGI [12]: 10.5 µM | GI50 [13]: < 0.01 µM | TGI [13]: 17.4 µM | GI50 [14]: < 0.01 µM | TGI [14]: 15.1 µM | GI50 [15]: < 0.01 µM | TGI [15]: 13.9 µM | GI50 [16]: < 0.01 µM | TGI [16]: < 0.01 µM | GI50 [17]: < 0.01 µM | TGI [17]: 8.01 µM | GI50 [18]: < 0.01 µM | TGI [18]: 10.9 µM | GI50 [19]: < 0.01 µM | TGI [19]: 13.5 µM | GI50 [20]: < 0.01 µM | TGI [20]: 15.3 µM | GI50 [21]: 10.8 µM | TGI [21]: 27 µM | GI50 [22]: < 0.0116 µM | TGI [22]: 18 µM | GI50 [23]: < 0.01 µM | TGI [23]: 14.5 µM | GI50 [24]: < 0.01 µM | TGI [24]: 12.6 µM | GI50 [25]: < 0.01 µM | TGI [25]: 15 µM | GI50 [26]: < 0.01 µM | TGI [26]: 13.3 µM | GI50 [27]: < 0.01 µM | TGI [27]: > 100 µM | GI50 [28]: < 0.01 µM | TGI [28]: 21.1 µM | GI50 [29]: < 0.01 µM | TGI [29]: 15 µM | GI50 [30]: < 0.01 µM | TGI [30]: > 48.6 µM | GI50 [31]: < 0.01 µM | TGI [31]: 10.6 µM | GI50 [32]: < 0.01 µM | TGI [32]: 2.19 µM | GI50 [33]: < 0.01 µM | TGI [33]: 12.3 µM | GI50 [34]: 1.53 µM | TGI [34]: 20 µM | TGI [35]: 18.9 µM | GI50 [36]: < 0.0266 µM | TGI [36]: 19.8 µM | GI50 [37]: 1.87 µM | TGI [37]: 24.1 µM | GI50 [38]: < 0.01 µM | TGI [38]: 11 µM | GI50 [39]: < 0.01 µM | TGI [39]: 18 µM | GI50 [40]: < 0.01 µM | TGI [40]: 16.3 µM | GI50 [41]: < 0.01 µM | TGI [41]: 22.9 µM | GI50 [42]: < 0.01 µM | TGI [42]: 11.6 µM | GI50 [43]: < 0.01 µM | TGI [43]: < 0.015 µM | GI50 [44]: < 0.01 µM | TGI [44]: 1.3 µM | GI50 [45]: < 0.01 µM | TGI [45]: 35.8 µM | GI50 [46]: < 0.01 µM | TGI [46]: 11.4 µM | GI50 [47]: < 0.01 µM | TGI [47]: 15.1 µM | GI50 [48]: < 0.01 µM | GI50 [49]: < 0.01 µM | TGI [49]: 5.3 µM | GI50 [50]: < 0.01 µM | GI50 [51]: < 0.01 µM | TGI [51]: < 0.01 µM | GI50 [52]: < 0.01 µM | TGI [52]: 26.8 µM | GI50 [53]: < 0.01 µM | TGI [53]: 12.5 µM | GI50 [54]: < 0.01 µM | TGI [54]: 16.6 µM | GI50 [55]: < 0.01 µM | TGI [55]: 16.4 µM | GI50 [56]: < 0.01 µM | TGI [56]: 22.4 µM | GI50 [57]: < 0.015 µM | TGI [57]: 19.8 µM
